Results on 15 compounds are retold here after US6011060A, “Chiral phenyldihydrofuranones as PDE-IV inhibitors” (Schering Aktiengesellschaft, priority 1996, dated 2000).

This assay has as its target radiolabeled Rolipram of rat brain homogenates. Description: displacement of radiolabeled Rolipram in rat brain homogenates, in vitro (Eur. J. Pharmacol. 127, 105-115 (1986)). To be noted: 3H-rolipram tracer, IC50 converted: Ki = IC50/[1+(L/KD)]. It is filed as binding. As to the method: The action on the central nervous system is determined in vitro by measuring the displacement capacity of radiolabeled Rolipram of rat brain homogenates (Eur. J. Pharmacol., Vol. 127, 105-115 (1986)). The IC50 values (that concentration in which 50% inhibiting action occurs) were converted into inhibition constant Ki, which is calculated according to the formula below: […]
in which L means the concentration of the radioactive tracer and KD means the dissociation constant of the ^3 H-rolipram bond, which is determined separately.

SMILES strings stand for the structures.

Turning to `COc1ccc([C@]2(C)CCC(=O)O2)cc1OCC1CC1` [cyclopropylmethyl, (S)-(-)-enantiomer, (S)-(-)-5-(3-cyclopropylmethoxy-4-methoxyphenyl)-5-methyl-dihydro-2-furanone], the Ki was 130 pM. This counts as sub-nanomolar. With `COc1ccc(C2(C)CCC(=O)O2)cc1OCC1CC1` (racemic) [cyclopropylmethyl, Racemate, (R,S)-5-(3-cyclopropylmethoxy-4-methoxyphenyl)-5-methyl-dihydro-2-furanone], the affinity corresponds to a Ki of 210 pM. Against the preceding compound, the Ki is about 1.6-fold higher. With `COc1ccc(C2(C)CCC(=O)O2)cc1OC1CCC1` (racemic) [cyclobutyl, Racemate, (R,S)-5-(3-cyclobutyloxy-4-methoxyphenyl)-5-methyl-dihydro-2-furanone], affinity was put at a Ki of 380 pM. As to `COc1ccc([C@@]2(C)CCC(=O)O2)cc1OC1CCCC1` [cyclopentyl, (R)-(+)-enantiomer, (R)-(+)-5-(3-cyclopentyloxy-4-methoxyphenyl)-5-methyl-dihydro-2-furanone], the affinity corresponds to a Ki of 2800 pM. Compared with the last compound, the Ki is about 7.4-fold higher.

In turn, `COc1ccc(C2(C)CCC(=O)O2)cc1OCC(C)C` (racemic) [isobutyl, Racemate, (R,S)-5-(3-isobutyloxy-4-methoxyphenyl)-5-methyl-dihydro-2-furanone] yielded an inhibition constant (Ki) of 480 pM. Against the preceding compound, the Ki is about 5.8-fold lower. In turn, `CCCOc1cc([C@@]2(C)CCC(=O)O2)ccc1OC` [propyl, (R)-(+)-enantiomer, (R)-(+)-5-(4-methoxy-3-propoxyphenyl)-5-methyl-dihydro-2-furanone] registered a Ki of 7300 pM.

The compound `CCCOc1cc([C@]2(C)CCC(=O)O2)ccc1OC` [propyl, (S)-(-)-enantiomer, (S)-(-)-5-(4-methoxy-3-propoxyphenyl)-5-methyl-dihydro-2-furanone] yielded a Ki of 470 pM. Regarding `COc1ccc([C@@]2(C)CCC(=O)O2)cc1OCC1CC1` [cyclopropylmethyl, (R)-(+)-enantiomer, (R)-(+)-5-(3-cyclopropylmethoxy-4-methoxyphenyl)-5-methyl-dihydro-2-furanone], the Ki amounted to 2200 pM. The compound `COc1ccc([C@]2(C)CCC(=O)O2)cc1OCC(C)C` [isobutyl, (S)-(-)-enantiomer, (S)-(-)-5-(3-isobutyloxy-4-methoxyphenyl)-5-methyl-dihydro-2-furanone] gave a Ki of 250 pM. `COc1ccc([C@]2(C)CCC(=O)O2)cc1OC1CCC1` [cyclobutyl, (S)-(-)-enantiomer, (S)-(-)-5-(3-cyclobutyloxy-4-methoxyphenyl)-5-methyl-dihydro-2-furanone] had a Ki of 200 pM. As to `COc1ccc([C@@]2(C)CCC(=O)O2)cc1OC1CCC1` [cyclobutyl, (R)-(+)-enantiomer, (R)-(+)-5-(3-cyclobutyloxy-4-methoxyphenyl)-5-methyl-dihydro-2-furanone], the inhibition constant (Ki) was 1900 pM.

Regarding `COc1ccc([C@]2(C)CCC(=O)O2)cc1OC1CCCC1` [cyclopentyl, (S)-(-)-enantiomer, (S)-(-)-5-(3-cyclopentyloxy-4-methoxyphenyl)-5-methyl-dihydro-2-furanone], the Ki was 280 pM. Compound `COc1ccc(C2(C)CCC(=O)O2)cc1OC1CCCC1` (racemic) [cyclopentyl, Racemate, (R,S)-5-(3-cyclopentyloxy-4-methoxyphenyl)-5-methyl-dihydro-2-furanone] registered a Ki of 500 pM. To `COc1ccc([C@@]2(C)CCC(=O)O2)cc1OCC(C)C` [isobutyl, (R)-(+)-enantiomer, (R)-(+)-5-(3-isobutyloxy-4-methoxyphenyl)-5-methyl-dihydro-2-furanone] belongs 2300 pM; to `CCCOc1cc(C2(C)CCC(=O)O2)ccc1OC` (racemic) [propyl, Racemate, (R,S)-5-(4-methoxy-3-propoxyphenyl)-5-methyl-dihydro-2-furanone], 740 pM.

As a reminder, the Ki is the dissociation constant of the complex between target and ligand, obtained from inhibition or displacement. A high value points to lower affinity.
